Laboratory results from US20120184542A1, “PYRIDO PYRIMIDINES” (priority 2011, published 2012).

How the values were obtained:
Human DYRK1A = biological target: T1, Human DYRK1A (Homo sapiens, UniProt Q13627); assay: DYRK1A Kinase TR-FRET (IMAP-Tb) Assay; type: biochemical; conditions: for IC50: TR-FRET (IMAP-Tb), ATP 70 μM, 37° C. 60 minutes, read-out: Enzyme IC50 (μM) DYRK1A; for inhibition at 10 µM: read-out: % inhibition of DYRK1A at 10 μM test compound concentration
T1 construct: purchased Invitrogen PV3997
Text: The kinase TR-FRET (IMAP-Tb) assay uses a fluorescence labeled substrate peptide in the kinase reaction. Upon phosphorylation by the kinase, phosphopeptide is produced, which will be detected by the binding solution provided in IMAP TR-FRET binding kit. After the completion of the kinase reaction, the reaction will be stopped by adding the binding solution containing terbium tracer. This tracer is immobilized on the surface of the IMAP beads, which also contain metal ions on the beads that bind to the phospho-groups of the products. Thus the phosphorylated product of the reaction can enter into close proximity to the tracer, producing resonance energy transfer. Due to the long lifetime of terbium (Tb) fluorescence the detection can be run in time resolved mode, which virtually eliminates fluorescence interference from assay components or compounds.
The TR-FRET signal measurement from this assay, given as an IC50 measurement, is a measure of a test compound's ability to interfere with the phosphorylation of the peptide substrate, that is it inhibits the phosphorylation of the substrate peptide by DYRK1A, and is thus a measure of the test compound's ability to inhibit the activity of DYRK1A.
• 1. Human DYRK1A: from Invitrogen. Part #PV3997 • 2. Substrate Peptide: […] • 3. IMAP TR-FRET IPP Explorer Kit: from Molecular Devices. Part #R8157 • 4. Kinase Assay Buffer (KAB): 10 mM HEPES pH 7.0, 50 mM NaCl, 5 mM MgCl2, 1 mM DTT, 1 mM NaVO4, 200 μg/mL BSA (0.02%) • 5. Assay Plate: Remp polypropylene clear 384-well microplate. […] Detection Plate: Costa black 384-well microplate.
• 1. Transfer 1.5 μL of 20× compound solution to each well of an assay plate. • 2. Add to each well 22.5 μL of KAB Buffer. • 3. Add to each well 3 μL of the solution of DYRK1A and ATP. […] Add to each well 3 μL of the substrate peptide. The assay concentration is 1.0 μM • 5. Incubate the assay plates at 37° C. for 60 minutes. • 6. Add 18 μL of Detection Solution (1:800 diluted Progress bead stock, 1:400 diluted Tb stock, 80% Buffer A, and 20% Buffer B) into each well of detection plates. • 7. Transfer 6 μL of assay solution from the assay plate to the detection plate. • 8. Shake detection plates for 30 minutes. • 9. Read plates in Envision with wavelength set at excitation 340 nm for Tb, emission 490 nm, and […].

Human DYRK1B = biological target: T2, Human DYRK1B (Homo sapiens, UniProt Q9Y463); assay: DYRK1B Kinase TR-FRET (IMAP-Tb) Assay; type: biochemical; conditions: for IC50: TR-FRET (IMAP-Tb), ATP 70 μM, 37° C. 60 minutes, read-out: Enzyme IC50 (μM) DYRK1B; for inhibition at 10 µM: read-out: % inhibition of DYRK1B at 10 μM test compound concentration
T2 construct: purchased Invitrogen PR8350B (former PV4649)
T2 sequence (Q9Y463 whole entry): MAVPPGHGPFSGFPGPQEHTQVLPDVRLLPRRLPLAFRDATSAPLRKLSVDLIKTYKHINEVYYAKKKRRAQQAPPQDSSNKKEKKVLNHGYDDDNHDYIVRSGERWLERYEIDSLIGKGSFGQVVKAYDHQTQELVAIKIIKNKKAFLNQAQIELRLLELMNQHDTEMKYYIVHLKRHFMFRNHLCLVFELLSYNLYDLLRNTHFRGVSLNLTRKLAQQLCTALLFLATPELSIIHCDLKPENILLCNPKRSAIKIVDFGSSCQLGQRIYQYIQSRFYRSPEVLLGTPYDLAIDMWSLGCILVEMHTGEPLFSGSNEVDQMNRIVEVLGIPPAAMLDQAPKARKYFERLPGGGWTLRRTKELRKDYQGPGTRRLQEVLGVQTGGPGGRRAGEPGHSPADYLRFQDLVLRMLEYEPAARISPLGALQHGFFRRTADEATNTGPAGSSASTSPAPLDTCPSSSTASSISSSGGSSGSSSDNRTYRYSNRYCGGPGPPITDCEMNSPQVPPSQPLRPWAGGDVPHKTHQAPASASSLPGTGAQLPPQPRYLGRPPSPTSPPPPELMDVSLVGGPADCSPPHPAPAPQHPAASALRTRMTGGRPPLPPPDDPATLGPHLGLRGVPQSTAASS

CCN(CC)CCOc1ncc2cc(C(=O)Nc3cc(C(=O)OC)ccc3Cl)c(=O)[nH]c2n1 [Example 45, 4-Chloro-3-{[2-(2-diethylamino-ethoxy)-7-oxo-7,8-dihydro-pyrido[2,3-d]pyrimidine-6-carbonyl]amino}-benzoic acid methyl ester]
IC50 (Human DYRK1A): 0.729 µM
IC50 (Human DYRK1B): 0.85 µM

COc1ncc2cc(C(=O)Nc3cc(C(=O)NCc4ccc(Cl)cc4)ccc3Cl)c(=O)[nH]c2n1 [Example 46, 2-Methoxy-7-oxo-7,8-dihydro-pyrido[2,3-d]pyrimidine-6-carboxylic acid [2-chloro-5-(4-chloro-benzylcarbamoyl)-phenyl]-amide]
IC50 (Human DYRK1A): 1.16 µM
IC50 (Human DYRK1B): 0.192 µM

COc1ncc2cc(C(=O)Nc3cc(C(=O)NCc4ccccc4Cl)ccc3Cl)c(=O)[nH]c2n1 [Example 47, 2-Methoxy-7-oxo-7,8-dihydro-pyrido[2,3-d]pyrimidine-6-carboxylic acid [2-chloro-5-(2-chloro-benzylcarbamoyl)-phenyl]-amide]
IC50 (Human DYRK1A): 0.0343 µM
IC50 (Human DYRK1B): 0.0908 µM

COC(=O)c1ccc(Br)c(NC(=O)c2cc3cnc(OC)nc3[nH]c2=O)c1 [Example 48, 4-Bromo-3-[(2-methoxy-7-oxo-7,8-dihydro-pyrido[2,3-d]pyrimidine-6-carbonyl)-amino]-benzoic acid methyl ester]
IC50 (Human DYRK1A): 0.205 µM
IC50 (Human DYRK1B): 0.217 µM

COc1ncc2cc(C(=O)Nc3cc(C(=O)OCc4ccccc4)ccc3Cl)c(=O)[nH]c2n1 [Example 50, 4-Chloro-3-[(2-methoxy-7-oxo-7,8-dihydro-pyrido[2,3-d]pyrimidine-6-carbonyl)-amino]-benzoic acid benzyl ester]
inhibition at 10 µM (Human DYRK1A): 30%
inhibition at 10 µM (Human DYRK1B): 3%

COc1ncc2cc(C(=O)Nc3cc(C(=O)OCc4ccccc4Cl)ccc3Cl)c(=O)[nH]c2n1 [Example 52, 4-Chloro-3-[(2-methoxy-7-oxo-7,8-dihydro-pyrido[2,3-d]pyrimidine-6-carbonyl)-amino]-benzoic acid 2-chloro-benzyl ester]
IC50 (Human DYRK1A): 1.19 µM
IC50 (Human DYRK1B): 5.25 µM

COc1ncc2cc(C(=O)Nc3cc(C(=O)OCc4cccc(Cl)c4)ccc3Cl)c(=O)[nH]c2n1 [Example 53, 4-Chloro-3-[(2-methoxy-7-oxo-7,8-dihydro-pyrido[2,3-d]pyrimidine-6-carbonyl)-amino]-benzoic acid 3-chloro-benzyl ester]
inhibition at 10 µM (Human DYRK1A): 32%
IC50 (Human DYRK1B): > 10 µM

COc1ncc2cc(C(=O)Nc3cc(C(=O)N(C)C)ccc3Cl)c(=O)[nH]c2n1 [Example 55, 2-Methoxy-7-oxo-7,8-dihydro-pyrido[2,3-d]pyrimidine-6-carboxylic acid (2-chloro-5-dimethylcarbamoyl-phenyl)-amide]
IC50 (Human DYRK1A): 4.1 µM
IC50 (Human DYRK1B): 1.37 µM

COc1ncc2cc(C(=O)Nc3cc(C(=O)NCc4cccc(C(F)(F)F)c4)ccc3Cl)c(=O)[nH]c2n1 [Example 59, 2-Methoxy-7-oxo-7,8-dihydro-pyrido[2,3-d]pyrimidine-6-carboxylic acid [2-chloro-5-(3-trifluoromethyl-benzylcarbamoyl)-phenyl]-amide]
IC50 (Human DYRK1A): 0.0723 µM
IC50 (Human DYRK1B): 0.222 µM

COc1ncc2cc(C(=O)Nc3cc(C(=O)N(C)Cc4ccccc4)ccc3Cl)c(=O)[nH]c2n1 [Example 60, 2-Methoxy-7-oxo-7,8-dihydro-pyrido[2,3-d]pyrimidine-6-carboxylic acid [5-(benzyl-methyl-carbamoyl)-2-chloro-phenyl]-amide]
IC50 (Human DYRK1A): 0.561 µM
IC50 (Human DYRK1B): 0.357 µM

COc1ncc2cc(C(=O)Nc3cc(C(=O)NCc4cccc(Cl)c4)ccc3C)c(=O)[nH]c2n1 [Example 62, 2-Methoxy-7-oxo-7,8-dihydro-pyrido[2,3-d]pyrimidine-6-carboxylic acid [5-(3-chloro-benzylcarbamoyl)-2-methyl-phenyl]-amide]
IC50 (Human DYRK1A): 0.119 µM
IC50 (Human DYRK1B): 0.437 µM

COc1ncc2cc(C(=O)Nc3cc(C(=O)N(C)Cc4cccc(Cl)c4)ccc3C)c(=O)[nH]c2n1 [Example 63, 2-Methoxy-7-oxo-7,8-dihydro-pyrido[2,3-d]pyrimidine-6-carboxylic acid {5-[(3-chloro-benzyl)-methyl-carbamoyl]-2-methyl-phenyl}-amide]
IC50 (Human DYRK1A): 4.58 µM
inhibition at 10 µM (Human DYRK1B): 28%

CN(Cc1cccc(Cl)c1)C(=O)c1ccc(Cl)c(NC(=O)c2cc3cnc(N4CCCCC4)nc3[nH]c2=O)c1 [Example 64, 7-oxo-2-piperidin-1-yl-7,8-dihydro-pyrido[2,3-d]pyrimidine-6-carboxylic acid {2-chloro-5-[(3-chloro-benzyl)-methyl-carbamoyl]-phenyl}-amide]
IC50 (Human DYRK1A): 0.903 µM
inhibition at 10 µM (Human DYRK1B): 46.6%

COc1ncc2cc(C(=O)Nc3cc(C(=O)NCc4ccccn4)ccc3Cl)c(=O)[nH]c2n1 [Example 66, 2-Methoxy-7-oxo-7,8-dihydro-pyrido[2,3-d]pyrimidine-6-carboxylic acid {2-chloro-5-[(pyridin-2-ylmethyl)-carbamoyl]-phenyl}-amide]
IC50 (Human DYRK1A): 0.16 µM
IC50 (Human DYRK1B): 0.282 µM

COc1ncc2cc(C(=O)Nc3cc(C(=O)NCc4cccnc4)ccc3Cl)c(=O)[nH]c2n1 [Example 67, 2-Methoxy-7-oxo-7,8-dihydro-pyrido[2,3-d]pyrimidine-6-carboxylic acid {2-chloro-5-[(pyridin-3-ylmethyl)-carbamoyl]-phenyl}-amide]
IC50 (Human DYRK1A): 0.263 µM
IC50 (Human DYRK1B): 0.669 µM

COc1ncc2cc(C(=O)Nc3cc(C(=O)NCc4ccncc4)ccc3Cl)c(=O)[nH]c2n1 [Example 68, 2-Methoxy-7-oxo-7,8-dihydro-pyrido[2,3-d]pyrimidine-6-carboxylic acid {2-chloro-5-[(pyridin-4-ylmethyl)-carbamoyl]-phenyl}-amide]
IC50 (Human DYRK1A): 0.251 µM
IC50 (Human DYRK1B): 0.261 µM

COc1ncc2cc(C(=O)Nc3cc(C(=O)NCC(C)C)ccc3Cl)c(=O)[nH]c2n1 [Example 79, 2-Methoxy-7-oxo-7,8-dihydro-pyrido[2,3-d]pyrimidine-6-carboxylic acid (2-chloro-5-isobutylcarbamoyl-phenyl)-amide]
IC50 (Human DYRK1A): 0.779 µM
IC50 (Human DYRK1B): 1.52 µM

CCOC(=O)c1ccc(Cl)c(NC(=O)c2cc3cnc(OC)nc3[nH]c2=O)c1 [Example 82, 4-Chloro-3-[(2-methoxy-7-oxo-7,8-dihydro-pyrido[2,3-d]pyrimidine-6-carbonyl)-amino]-benzoic acid ethyl ester]
IC50 (Human DYRK1A): 0.463 µM
IC50 (Human DYRK1B): 1.11 µM

O=C(NCc1cccc(Cl)c1)c1ccc(Cl)c(NC(=O)c2cc3cnc(N4CCC(O)CC4)nc3[nH]c2=O)c1 [Example 92, 2-(4-Hydroxy-piperidin-1-yl)-7-oxo-7,8-dihydro-pyrido[2,3-d]pyrimidine-6-carboxylic acid [2-chloro-5-(3-chloro-benzylcarbamoyl)-phenyl]-amide]
IC50 (Human DYRK1A): 0.0202 µM
IC50 (Human DYRK1B): 0.035 µM

CC(C)(C)CNC(=O)c1ccc(Cl)c(NC(=O)c2cc3cnc(N4CCOCC4)nc3[nH]c2=O)c1 [Example 142, 2-Morpholin-4-yl-7-oxo-7,8-dihydro-pyrido[2,3-d]pyrimidine-6-carboxylic acid [2-chloro-5-(2,2-dimethyl-propylcarbamoyl)-phenyl]-amide]
IC50 (Human DYRK1A): 2.43 µM
inhibition at 10 µM (Human DYRK1B): 44%

O=C(NCc1cccc(Cl)c1)c1cc(NC(=O)c2cc3cnc(N4CCOCC4)nc3[nH]c2=O)c(Cl)cc1F [Example 144, 2-Morpholin-4-yl-7-oxo-7,8-dihydro-pyrido[2,3-d]pyrimidine-6-carboxylic acid [2-chloro-5-(3-chloro-benzylcarbamoyl)-4-fluoro-phenyl]-amide]
IC50 (Human DYRK1A): 0.205 µM
inhibition at 10 µM (Human DYRK1B): 23%

CC(C)(O)CNc1ncc2cc(C(=O)Nc3cc(C(=O)NC(CO)c4ccccc4)ccc3Cl)c(=O)[nH]c2n1 (stereo not shown) [Example 153, N-(2-Chloro-5-(2-hydroxy-1-phenylethylcarbamoyl)phenyl)-2-(2-hydroxy-2-methylpropylamino)-7-oxo-7,8-dihydropyrido[2,3-d]pyrimidine-6-carboxamide]
IC50 (Human DYRK1A): 0.0931 µM
IC50 (Human DYRK1B): 0.185 µM

CC(C)(O)CNc1ncc2cc(C(=O)Nc3cc(C(=O)NC(CCO)c4ccccc4)ccc3Cl)c(=O)[nH]c2n1 (stereo not shown) [Example 154, N-(2-Chloro-5-(3-hydroxy-1-phenylpropylcarbamoyl)phenyl)-2-(2-hydroxy-2-methylpropylamino)-7-oxo-7,8-dihydropyrido[2,3-d]pyrimidine-6-carboxamide]
IC50 (Human DYRK1A): 0.075 µM
IC50 (Human DYRK1B): 0.078 µM
